The compounds below were run against T1, AT1 receptors (Homo sapiens, UniProt P30556) (assay: Effect on calcium current in cells stably expressing AT1 receptors (FLIPR, antagonist mode)). Details: HEK293-AT1 cells, Fluo-8 AM, FLIPR Tetra; read-out: IC50 values of compounds on calcium current in cells stably expressing AT1 receptors.
T1 construct: host or cells: HEK293
T1 sequence (P30556 1-359): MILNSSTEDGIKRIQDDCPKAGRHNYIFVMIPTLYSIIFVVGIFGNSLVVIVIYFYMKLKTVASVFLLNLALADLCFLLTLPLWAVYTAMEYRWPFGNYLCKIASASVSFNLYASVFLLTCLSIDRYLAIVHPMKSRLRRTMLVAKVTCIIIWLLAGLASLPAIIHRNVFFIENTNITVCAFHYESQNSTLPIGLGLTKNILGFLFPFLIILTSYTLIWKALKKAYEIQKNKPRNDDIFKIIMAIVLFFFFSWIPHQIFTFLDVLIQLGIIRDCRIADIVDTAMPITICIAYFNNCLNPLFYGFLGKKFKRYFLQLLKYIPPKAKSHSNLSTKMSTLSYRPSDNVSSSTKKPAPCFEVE
Type: cell-based
Excerpt: Test Example 1. Determination of the Effect of the Compounds of the Present Invention on Calcium Current in Cells Stably Expressing AT1 Receptors
Antagonistic effect of test compounds on HEK293-AT1 cell activity
• DMEM, high glucose (Gibco: 12100); • Fetal bovine serum (Biosera: FB-1058/500); • P/S (Biosera: XC-A4122); • 5× Matrigel (Corning: 354230); • HBSS (Sigma: H1387); • HEPES (Invitrogen: 15630080); • Fluo-8 AM (AAT Bioquest: 21080); • Probenecid (Sigma: P8761); • Pluronic F-127 (Sigma: P2443-250G); • Angiotensin III TFA (MCE: HY-113035A); • Irbesartan (MCE: HY—B0202); • 1000× Fluo-8 AM (2 mM): Fluo-8 AM was dissolved in DMSO, the mixture was shaken for 1-2 min, sub-packaged and stored at −20° C.; • Complete culture medium: DMEM+10% FBS+1×P/S; • Cell seeding medium: DMEM+10% FBS+1×PS; • Experimental buffer 1: 1×HBSS+20 mM HEPES+1 mM Probenecid+0.025% Pluronic F-127; • Experimental buffer 2: 1×HBSS+20 mM HEPES+0.075% Pluronic F-127; • 1× Matrigel: 5× Matrigel was diluted with DMEM; • Cell line: HDB HEK293-AT1.
• 1) HEK293-AT1 cell line was cultured in complete culture medium at 37° C., 5% CO2 to 70%-90% confluence. • 2) the 384-well cell plate was coated with 1× Matrigel with 5 μL/well at room temperature for 10 to 30 min. • 3) the cells were digested and resuspended in cell seeding medium, inoculation was performed at 8,000 cells/well/20 μL in a 384-well cell culture plate, and the cells were cultured at 37° C., 5% CO2 for 24 h. • 4) the cell culture plate was taken out of the CO2 incubator and equilibrated at room temperature for 10 min. • 5) 1000× Fluo-8 AM was taken and diluted to 1× Fluo-8 AM with experimental buffer 1 that has been equilibrated to room temperature, with a concentration of 2 μM. • 6) the culture medium was removed from the cell culture plate, 20 μL of 1× Fluo-8 AM was added to each well, the mixture was centrifuged at 300 rpm for 60 seconds at room temperature, and incubated at room temperature in the dark for 1 h. • 7) positive control compound and test compound working solution (3×) were formulated: • (1) instrument Bravo was used to dilute the compound to 11 concentration points on the 384-well Echo compound plate (LABCYTE: LP-0200); • (2) instrument ECHO was used to transfer 90 nL of compound per well (compound storage concentration, such as the highest concentration point 10 mM) to the 384-well compound plate (PE: 6008590); • (3) Multidrop Combi was used to add 30 μL of experimental buffer 2 to the 384-well compound plate (PE: 6008590), the positive control compound and test compound were diluted to 30 μM (3×), and placed at room temperature until use. • 8) FLIPR Tetra was used to add 10 μL of diluted 3× compound into the experimental well of the corresponding 384-well cell plate, the compound and cells were incubated for 10 min at room temperature, then 10 μL of diluted 4× agonist was added, and the data was read and collected at the same time.
FLIPR Tetra was used to read and collect the fluorescence signal value (RFU). The maximum RFU value was used to calculate the percent activation data based on the readings of the Low control (DMSO control) and High control (100 nM positive compound) experimental groups {% activation rate=(RFUsample−RFUlow control)/(RFUhigh control−RFUlow control)×100}. The concentration of the test compound was 11 concentrations after diluting the reaction system 3 times, ranging from 10 uM to 0.17 nM.
CCCCC1=NC2(CC3CC3C2)C(=O)N1Cc1ccc(-c2ccccc2S(=O)(=O)Nc2noc(C)c2C)c(COCC)c1 (stereo not drawn) [Example 87, 4′-((2′-butyl-5′-oxaspiro[bicyclo[3.1.0]hexane-3,4′-imidazole]-1′(5′H)-yl)methyl)-N-(4,5-dimethylisoxazol-3-yl)-2′-(ethoxymethyl)-[1,1′-biphenyl]-2-sulfonamide] gave an IC50 of 9.6 nM. For CCCCC1=NC2(CCCC2)C(=O)N1Cc1ccc(-c2ccccc2S(=O)(=O)Nc2noc(C)c2Cl)c(COCC(F)(F)F)c1 [Example 86], the IC50 was 2.2 nM. Compound CCCCC1=NC2(CC3CC3C2)C(=O)N1Cc1ccc(-c2ccccc2S(=O)(=O)Nc2noc(C)c2Cl)c(COCC)c1 (stereo not drawn) [Example 65, 4′-((2′-butyl-5′-oxaspiro[bicyclo[3.1.0]hexane-3,4′-imidazole]-1′(5′H)-yl)methyl)-N-(4-chloro-5-methylisoxazol-3-yl)-2′-(ethoxymethyl)-[1,1′-biphenyl]-2-sulfonamide] has an IC50 of 4.4 nM. CCCCC1=NC2(CCCCC2)C(=O)N1Cc1ccc(-c2ccccc2S(=O)(=O)Nc2noc(C)c2Cl)c(COCC)c1 [Example 68, 4′-((2-2-4-4-oxo-1,3-diazaspiro[4.5]dec-1-en-3-yl)methyl)-N-(4-chloro-5-methylisoxazol-3-yl)-2′-(ethoxymethyl)-[1,1′-biphenyl]-2-sulfonamide] showed an IC50 of 8.8 nM. [2H]C([2H])(OCC)c1cc(CN2C(=O)C3(CCCC3)N=C2CCCC)ccc1-c1ccccc1S(=O)(=O)Nc1noc(C)c1Cl [Example 49, 4′-((2-butyl-4-oxo-1,3-diazospiro[4.4]non-1-en-3-yl)methyl)-N-(4-chloro-5-methylisoxazol-3-yl)-2′-(ethoxydeuteriummethyl)-[1,1′-biphenyl]-2-sulfonamide] was tested, and the IC50 was 7.2 nM. CCCCC1=NC2(CCCC2)C(=O)N1Cc1ccc(-c2ccccc2S(=O)(=O)Nc2noc(C)c2Br)c(COCC)c1 [Example 46, 2-[4-[(2-butyl-4-oxo-1,3-diazaspiro[4.4]non-1-en-3-yl)methyl]-2-(ethoxymethyl)phenyl]-N-(4-bromo-5-methyl-isoxazol-3-yl)benzsulfamide] showed an IC50 of 3.9 nM.

Source: US20240368123A1, “AROMATIC RING-CONTAINING BIOLOGICAL ANTAGONIST, AND PREPARATION METHOD THEREFOR AND USE THEREOF” (SHANGHAI HANSOH BIOMEDICAL CO., LTD., priority 2021, published 2024)
